The text below walks through data of a melting point compilation (Tetko et al.; mined from patent text by program, amines drawn as free bases though some values may be those of a salt).

The melting point is the temperature of the solid-liquid transition. The compound `CCc1cnc2c(NC(=O)c3c(Cl)cccc3Cl)cccc2c1CN1CCN(C)C1=O` came in with a melting point of 202 to 203 °C.

In turn, `Clc1ccc2c(c1)C(c1ccccc1)=NCc1nnc(CN3CCCCC3)n1-2` gave a melting point of 202 to 203 °C.

As to `CC(C)c1nc(C(C)(C)C)cc(-c2ccc(F)cc2)c1C=CI`, the melting point is 78 to 80 °C.

`CC(C)c1cccc(C(C)C)c1NC(=O)CN1CCCN(CCCSc2nc3ccccc3o2)CC1` registered a melting point of 109 to 111 °C.

In turn, `c1cc(CSSc2nc3ccccc3s2)cc(CSSc2nc3ccccc3s2)c1` had a melting point of 94 to 96 °C.

`COc1ccc(-c2sc3c(c2OC(C)=O)CCCc2ccccc2-3)cc1` registered a melting point of 154 °C.

`CC(=C1SC(=O)NC1=O)c1ccc(OCCOc2c(-c3ccc(F)cc3)n(C)c3ccccc3c2=O)cc1` had a melting point of 228 to 230 °C.

On to `CCCn1cc(C(=O)OCC)c(=O)c2cc(F)c(-n3cccc3)cc21`, for which the melting point fell in the range of 128 to 130 °C.

In turn, `CNC(=O)C(=NOC)C1=C(COc2ccccc2C)CC(C)=C(C)C1` returned a melting point of 96 to 98 °C.

For `CC(=O)NCc1ccc(-c2ccc([N+](=O)[O-])cc2)o1`, the melting point is 149 to 151 °C.

`O=c1cc(-c2ccc(O)cc2)oc2ccncc12` registered a melting point of 306 to 308 °C.

Turning to `Nc1ncnc2c1c(-c1ccc(F)cc1)cn2-c1ccccc1`, the melting point lay within 202 to 203 °C.

Compound `COc1cnc(Cl)c(C(N)=O)c1` had a melting point of 129 to 132 °C.

Take `CCn1c2c(c(=O)c3cc(C(C)C)ccc31)Cc1cc(C)sc1-2`: the melting point was in the range of 168 to 169 °C.

`COc1cccc(CC(=O)O)c1OCCCc1cn(-c2ncc(C(F)(F)F)cn2)nc1C(C)C` returned a melting point of 131 to 132 °C.

`COC(=O)C(N)=Cc1ccc(OCC(O)CNC(C)C)c(Cl)c1` (stereo not drawn) returned a melting point of 122 to 123 °C.

`COC(=O)C1CC(Oc2ccc([N+](=O)[O-])cc2)CN1C(=O)C1(C)CCc2c(C)c(O)c(C)c(C)c2O1` (stereo not drawn) came in with a melting point of 103 to 105 °C.

Take `Nc1ccc2c(cnn2Cc2cccc(F)c2)c1`: the melting point is 130 °C.

`CCN1CCC(OC)(c2cccc(F)c2F)C1` (single isomer, unassigned; (+)): the melting point lay within 104 to 106 °C.

On to `O=C1C(=Cc2ccc(-c3cccs3)s2)CCc2cc(OCCn3ccnc3)ccc21`, for which the melting point lay within 180 to 181 °C.

Turning to `COc1ccc(OCc2ccccc2)cc1C(=O)O`, the melting point is 114 to 116 °C.

The compound `CSCCCn1cc(C(Cc2ccccc2Br)=NO)c2ccc(Cl)c(Cl)c21` showed a melting point of 139 to 142 °C.

The compound `O=C(C=C1c2ccccc2-c2ccccc21)NCCCCCC(=O)NO` returned a melting point of 174 to 176 °C.

On to `Cc1nc(-c2ccc(-c3cscn3)c(C)c2)c(-c2ccc(S(C)(=O)=O)c(F)c2)o1`, for which the melting point lay within 177 to 178 °C.

For `Fc1cccc(COc2ccc(Nc3ncnc4sc(C#Cc5ncccn5)cc34)cc2Cl)c1`, the melting point was determined as 225 °C.

For the compound `O=C(NC1CCC(c2cc(Nc3cccc(C(F)(F)F)c3)n[nH]2)C1)C1CCC1` (stereo not drawn), the melting point was 232 °C.

As for `COC(C)(C)C#Cc1ncn2c1CN(C)C(=O)c1ccccc1-2`, the melting point lay in the range of 136 to 137 °C.

`CN(CCCCCNC(=NCCSCc1csc(NC(=N)N)n1)NC#N)CCC(c1ccc(Cl)cc1)c1ccccn1` (stereo not drawn): the melting point was in the range of 87 to 90 °C.

Compound `NC(=O)Cc1ccc2c(c1)CCc1ccccc1O2` gave a melting point of 205 to 206 °C.

In the case of `Cc1cccc(-c2n[nH]cc2-c2ccc(F)c(-c3c[nH]cn3)c2)n1`, the melting point lay in the range of 229 to 233 °C.

In the case of `CCCCCCCN(CCCCCSc1ncnc2[nH]ncc12)C(=O)NC(C)C`, the melting point was 81 to 83 °C.

With `CNc1ccc(-c2cnc3[nH]cc(C(=O)C4(C)CCCCC4)c3n2)cc1`, the melting point was in the range of 273 to 275 °C.

`O=C(Nc1c(F)cccc1F)c1ccc(-n2nc(C(F)(F)F)cc2C2CC2)cc1`: the melting point is 145 to 147 °C.

`O=C(O)Cc1c(C(=O)c2cc(Cl)ccn2)[nH]c2ccc(Cl)cc12` displayed a melting point of 243 to 244 °C.

`CCCCCCCCCCCCc1ccc(N)c([N+](=O)[O-])c1` gave a melting point of 69 to 71 °C.

Turning to `CCOC(=O)c1cccc(-c2ccc(-c3ccc(C(F)(F)F)cc3)o2)c1`, the melting point lay within 93 to 94 °C.

As to `CCOC(=O)c1cnc2nc(N3CCN(C)CC3)ncc2c1OCC`, the melting point was 105 to 108 °C.

Regarding `O=C1C=CCC(CCc2ccc(Cl)cc2Cl)O1` (stereo not drawn), the melting point lay in the range of 69 to 70 °C.

In the case of `NCC(=O)N1CCC(C2c3ncc(Br)cc3CCc3cc(Cl)cc(Cl)c32)CC1` (single isomer, unassigned; (+)), the melting point fell in the range of 81 to 122 °C.

Turning to `C=C(Cn1ccnc1)c1ccccc1OCc1ccc(Cl)cc1Cl`, the melting point is 84 to 86 °C.

The compound `O=C(O)c1cccc(Nc2nccc(-c3cccnc3)n2)c1` came in with a melting point of 291 to 295 °C.

Compound `COC(=O)c1ccc2c(c1)OCC(=O)N2` registered a melting point of 258 to 260 °C.

The compound `CN(C)c1ccc2c(c1)SC1=NCCN12` displayed a melting point of 144 °C.

Compound `Cc1ccsc1C=Cc1nccn1C` registered a melting point of 287 to 288 °C.

As for `CCCCCCCCCCCCCCCCCCOC(=O)c1ccc(CBr)cc1`, the melting point fell in the range of 53 to 55 °C.

Compound `COc1ccc(NC(=O)c2ccc(OC)c(C34CC5CC(CC(C5)C3)C4)c2)c([N+](=O)[O-])c1` showed a melting point of 208 to 210 °C.

With `CCOC(=O)CC(O)c1ccc2c(c1)CC(CNS(=O)(=O)c1ccc(Cl)cc1)C2` (stereo not drawn), the melting point is 108 to 111 °C.

Compound `CN(CCCCC(=O)O)c1ccc(Br)cc1C=O` registered a melting point of 72 to 73 °C.

Turning to `CC(C)(C)OC(=O)N1CCC(OCc2ccccc2)C1CC(=O)Cn1cnc2ccc(F)c(F)c2c1=O` (stereo not drawn), the melting point was 211 °C.

As for `CC(C)(C)OC(=O)N1CC=C(C#Cc2ccc3c(c2)NC(=O)CC(c2cccc(C#N)c2)=N3)CC1`, the melting point was determined as 239 °C.

Turning to `C=CCCc1sc(-c2nccs2)c2c1C(=O)CC(C)(C)C2`, the melting point was in the range of 62 to 65 °C.

Consider `CC1(C)NC(SCc2ccccc2N)=NC1=S`, for which the melting point is 103 to 104 °C.

Turning to `O=C(O)c1ccc(C2=NCCS2)nc1`, the melting point is 234 to 235 °C.

Turning to `O=C(O)CCCSc1cccc(Br)n1`, the melting point fell in the range of 72 to 74 °C.

Compound `CN1CCC(Nc2nc3ncnc(O)c3n2Cc2ccc(F)cc2)CC1` came in with a melting point of 256 °C.

For the compound `CC=CCn1c(C)c(C)c2cnnc(SCc3ccc(F)cc3F)c21`, the melting point lay in the range of 122 to 127 °C.

Regarding `Fc1cc(Cl)c(OC(F)F)cc1-c1ncnc(C(F)F)c1Cl`, the melting point is 56 to 57 °C.

As to `O=C1CCC(N2Cc3c(OCc4ccc5ccccc5c4)cccc3C2=O)C(=O)N1` (stereo not drawn), the melting point lay within 277 to 279 °C.

`CC(=O)N(C)C(Cc1ccncc1)C(=O)O` (stereo not drawn): the melting point fell in the range of 86 to 88 °C.

`COc1ccc(C(C)(c2ccc(OC)cc2)c2ccc(OC)cc2)cc1`: the melting point came out at 160 °C.

`COC(C)(C)CNC(=O)c1cccc(-c2cccc3cc(Cc4cc(F)cc(Cl)c4)sc23)c1` returned a melting point of 89 to 90 °C.

With `ON=C(c1cccc2nc(N[C@@H]3CCc4ccccc43)ccc12)C1CC1`, the melting point is 151 °C.

`COc1ccc(-c2ccc3c(c2)c2ccc(-c4ccc(OC)cc4)nc2n3S(=O)(=O)c2ccccc2)cc1`: the melting point fell in the range of 206 to 208 °C.

Consider `CNc1nc(-c2cccc(NC(=O)c3ccccc3O)c2)c2cc(OC)c(OC)cc2n1`, for which the melting point was 212 to 214 °C.

In turn, `O=C(c1cc(-c2ccccc2)c(=O)n2c1-c1ccccc1C2)N1CCSCC1` registered a melting point of 266 to 268 °C.

As to `CCCCCCCCNc1nc(Cl)nc(NCCCCCCCC)n1`, the melting point fell in the range of 171 to 172 °C.

With `OC1(c2ccccc2)CCN(CCN2CCN(Cc3cc(C(F)(F)F)cc(C(F)(F)F)c3)CC2c2ccc(Cl)c(Cl)c2)CC1` (stereo not drawn), the melting point is 71 to 72 °C.

In turn, `CC(C)(O)c1ccc(CN)cc1` displayed a melting point of 62 to 64 °C.

In the case of `O=C(O)COc1cc2c(-c3ccccc3)csc2c(Cl)c1Cl`, the melting point lay within 152 to 154 °C.

`ClC(Cl)c1cccc2nnsc12` came in with a melting point of 131 to 133 °C.

On to `O=C1CCC(CCC(=O)OCc2ccc(Cl)cc2)N1` (stereo not drawn), for which the melting point was in the range of 63 to 64 °C.

The compound `CCCc1nc2c(N)nc3ccccc3c2n1Cc1cc(-c2cccnc2)on1` came in with a melting point of 206 to 207 °C.

For the compound `CCOC(=O)C(CCC(C)(C)c1cc(O)c(C(C)(C)CCC(C(=O)OCC)C(=O)OCC)cc1O)C(=O)OCC`, the melting point was in the range of 157 to 160 °C.

`CCOC(=S)Nc1ccccc1NC(=S)NC(=O)OC` registered a melting point of 172 °C.

Regarding `Clc1c(NC2=NCCN2)ccc2nsnc12`, the melting point fell in the range of 232 to 235 °C.

Consider `Nc1cc(-n2cc(C(=O)O)c(=O)c3cc(F)c(NC4CC4)c(Cl)c32)c(F)cc1F`, for which the melting point fell in the range of 141 to 143 °C.

On to `Cc1nc(N=CN(C)C)nc(N(C)C)n1`, for which the melting point was found to be 61 °C.

With `CCCCCCCCCCNC(=O)c1ccccc1N`, the melting point is 72 to 74 °C.

For `O=C1OC(=O)C2CCCC1C2`, the melting point was in the range of 138 to 140 °C.

The compound `O=C1C(=Cc2ccccc2)CS(=O)CC1=Cc1ccccc1` (stereo not drawn) gave a melting point of 155 to 160 °C.

`CCN1C(=O)C(C)(C)C(=O)N(C)c2cc(CN(CCc3cccnc3)Cc3scnc3C)ccc21` had a melting point of 118 to 120 °C.

With `N#Cc1ccc(Cn2cncn2)cc1-c1ccc(Cl)c(OS(N)(=O)=O)c1`, the melting point lay in the range of 148 to 150 °C.

Regarding `COc1cc(C(=O)N[C@@H]2c3cc(OC(F)(F)F)ccc3OC(C)(C)[C@H]2O)c([N+](=O)[O-])cc1OC`, the melting point is 97 °C.

`CCc1nc2c(N)nc3ccccc3c2n1CCCCS(=O)(=O)c1ncccn1` came in with a melting point of 172 to 175 °C.

As to `Fc1cccc(Cl)c1-c1c(Cl)cc(-c2ncccn2)nc1Cl`, the melting point is 147 °C.

Turning to `CCCCOc1ccc2sc(-c3ccccn3)nc(=O)c2c1`, the melting point lay within 161 to 162 °C.

Take `CN1CCC(c2c[nH]c3ccc(C(=O)c4ccc(F)cc4)cc23)CC1`: the melting point stood at 89 °C.

The compound `Cc1cc(-c2ccc(Cl)cc2)cn2c(-c3nc(-c4ccc(S(N)(=O)=O)cc4)no3)cnc12` registered a melting point of 311 °C.
